Test results reported in ChEMBL document CHEMBL2046362, “Synthesis and evaluation of novel potent HCV NS5A inhibitors” (Bioorg Med Chem Lett, 2012).

Legend:
[1] = Cytotoxicity against human HuH7 cells; assay type: cell-based, Huh-7
[2] = target: T1, Nonstructural protein 5A (Hepatitis C virus) (UniProt Q5L478); assay: Inhibition of HCV NS5A assessed as antiviral activity against HCV by viral replicon assay; conditions: Hepacivirus hominis
T1 sequence (whole entry): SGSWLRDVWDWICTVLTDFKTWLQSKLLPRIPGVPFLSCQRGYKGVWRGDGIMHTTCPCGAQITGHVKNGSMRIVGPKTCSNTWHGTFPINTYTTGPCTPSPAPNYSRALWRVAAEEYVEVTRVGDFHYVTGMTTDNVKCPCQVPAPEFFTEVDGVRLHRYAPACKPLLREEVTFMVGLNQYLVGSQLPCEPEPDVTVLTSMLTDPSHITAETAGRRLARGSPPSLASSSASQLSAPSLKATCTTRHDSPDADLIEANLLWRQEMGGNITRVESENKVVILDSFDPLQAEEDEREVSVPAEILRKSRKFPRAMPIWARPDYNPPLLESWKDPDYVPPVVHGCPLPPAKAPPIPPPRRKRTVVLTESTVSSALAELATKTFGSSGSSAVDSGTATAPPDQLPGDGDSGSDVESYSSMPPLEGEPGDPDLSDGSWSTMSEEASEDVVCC

CCRF-CEM = assay: Cytotoxicity against human CEM cells; assay type: cell-based
Vero = assay: Cytotoxicity against african green monkey Vero cells; assay type: cell-based; conditions: chlorocebus sabaeus
PBMC = assay: Cytotoxicity against human PBMC cells; assay type: cell-based; conditions: pbmc
[3] = Chemical stability in phosphate buffer assessed as compound degradation at pH 7 at 20 degC measured between 2 to 48 hrs during 48 hrs incubation period; assay type: physicochemical; conditions: pH 7, 48 h
Liver microsomes [4] = assay: Intrinsic clearance in human liver microsomes assessed per mg protein at 1 uM measured 5 to 60 mins post dose by LC-MS/MS nethod; assay type: ADME, Microsome
[5] = Chemical stability in phosphate buffer assessed as compound degradation at pH 3 at 20 degC measured between 1 to 48 hrs during 48 hrs incubation period; conditions: pH 3, 48 h
[6] = Cytotoxicity against human primary lymphocytes; assay type: cell-based; conditions: lymphocyte
Liver microsomes [7] = assay: Half life in human liver microsomes at 1 uM measured 5 to 60 mins post dose by LC-MS/MS nethod; assay type: ADME, Microsome
Cytochrome P450 2C9 = Cytochrome P450 2C9 (Homo sapiens, UniProt P11712); assay: Inhibition of CYP2C9; assay type: ADME
Cytochrome P450 2C9, sequence (P11712 whole entry): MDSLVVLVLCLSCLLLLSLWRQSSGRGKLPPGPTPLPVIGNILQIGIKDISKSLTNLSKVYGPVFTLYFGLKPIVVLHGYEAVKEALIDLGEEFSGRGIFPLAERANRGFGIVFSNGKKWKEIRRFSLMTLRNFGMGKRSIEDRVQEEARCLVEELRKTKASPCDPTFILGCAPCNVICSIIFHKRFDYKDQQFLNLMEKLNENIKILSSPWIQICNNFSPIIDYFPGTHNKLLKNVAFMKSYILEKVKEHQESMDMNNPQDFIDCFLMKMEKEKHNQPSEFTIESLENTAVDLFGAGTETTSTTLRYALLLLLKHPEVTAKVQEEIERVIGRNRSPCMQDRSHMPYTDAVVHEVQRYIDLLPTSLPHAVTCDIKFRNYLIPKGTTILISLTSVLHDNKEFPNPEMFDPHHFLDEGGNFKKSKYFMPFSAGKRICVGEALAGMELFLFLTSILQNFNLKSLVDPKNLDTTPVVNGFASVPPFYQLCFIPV

Structure (SMILES) | CC50 [1] | EC90 [2] | CC50 (CCRF-CEM) | CC50 (Vero) | CC50 (PBMC) | Stability [3] | CLint (Liver microsomes [4]) | Stability [5] | Activity [6] | t1/2 (Liver microsomes [7]) | IC50 (Cytochrome P450 2C9)
COC(=O)N[C@H](C(=O)N1C[C@H](N=[N+]=[N-])C[C@H]1c1nc(Br)c(-c2ccc(-c3ccc(-c4[nH]c([C@@H]5C[C@@H](N=[N+]=[N-])CN5C(=O)[C@@H](NC(=O)OC)C(C)C)nc4Br)cc3)cc2)[nH]1)C(C)C | > 1 µM | 0.0216 nM | 10.8 µM | > 100 µM | 19.8 µM |  |  |  |  |  | 
COC(=O)N[C@H](C(=O)N1CCC[C@H]1c1nc(-c2ccccc2)c(-c2ccc(-c3ccc(-c4[nH]c([C@@H]5CCCN5C(=O)[C@@H](NC(=O)OC)C(C)C)nc4-c4ccccc4)cc3)cc2)[nH]1)C(C)C | > 1 µM | 0.7 nM | 37.4 µM | > 100 µM | > 100 µM |  |  |  |  |  | 
COC(=O)N[C@H](C(=O)N1C[C@H](N=[N+]=[N-])C[C@H]1c1nc(Cl)c(-c2ccc(-c3ccc(-c4[nH]c([C@@H]5C[C@@H](N=[N+]=[N-])CN5C(=O)[C@@H](NC(=O)OC)C(C)C)nc4Cl)cc3)cc2)[nH]1)C(C)C | > 1 µM | 0.0096 nM | 3.8 µM | > 100 µM | 7.8 µM |  |  |  |  |  | 
COC(=O)N[C@H](C(=O)N1C[C@@H](N=[N+]=[N-])C[C@H]1c1nc(Cl)c(-c2ccc(-c3ccc(-c4[nH]c([C@@H]5C[C@H](N=[N+]=[N-])CN5C(=O)[C@@H](NC(=O)OC)C(C)C)nc4Cl)cc3)cc2)[nH]1)C(C)C | > 1 µM | 0.0746 nM | 4 µM | 98.1 µM | 3.3 µM |  |  |  |  |  | 
COC(=O)N[C@H](C(=O)N1CCC[C@H]1c1ncc(-c2ccc(-c3ccc(-c4cnc([C@@H]5CCCN5C(=O)[C@@H](NC(=O)OC)C(C)C)[nH]4)cc3)cc2)[nH]1)C(C)C |  | 0.02 nM |  |  |  |  |  |  |  |  | 
COC(=O)N[C@H](C(=O)N1C[C@H](N=[N+]=[N-])C[C@H]1c1ncc(-c2ccc(-c3ccc(-c4[nH]c([C@@H]5C[C@@H](N=[N+]=[N-])CN5C(=O)[C@@H](NC(=O)OC)C(C)C)nc4Cl)cc3)cc2)[nH]1)C(C)C | > 1 µM | 0.0295 nM | 31 µM | > 100 µM | 9.7 µM |  |  |  |  |  | 
COC(=O)N[C@H](C(=O)N1C[C@@H](N=[N+]=[N-])C[C@H]1c1ncc(-c2ccc(-c3ccc(-c4cnc([C@@H]5C[C@H](N=[N+]=[N-])CN5C(=O)[C@@H](NC(=O)OC)C(C)C)[nH]4)cc3)cc2)[nH]1)C(C)C | > 1 µM | 0.0352 nM | 18.4 µM | > 100 µM | 20.3 µM |  |  |  |  |  | 
COC(=O)N[C@H](C(=O)N1CCC[C@H]1c1nc(I)c(-c2ccc(-c3ccc(-c4[nH]c([C@@H]5CCCN5C(=O)[C@@H](NC(=O)OC)C(C)C)nc4I)cc3)cc2)[nH]1)C(C)C | > 1 µM | 0.011 nM | 35 µM | > 100 µM | 4.7 µM | Stable | 18 µL/min/mg | Stable | Toxic | 38.5 min | 
COC(=O)N[C@H](C(=O)N1C[C@@H](n2cc(C(=O)OC)nn2)C[C@H]1c1ncc(-c2ccc(-c3ccc(-c4cnc([C@@H]5C[C@H](n6cc(C(=O)OC)nn6)CN5C(=O)[C@@H](NC(=O)OC)C(C)C)[nH]4)cc3)cc2)[nH]1)C(C)C | > 1 µM | > 10 nM | > 100 µM |  | > 100 µM |  |  |  |  |  | 
COC(=O)N[C@H](C(=O)N1CCC[C@H]1c1nc(-c2cccs2)c(-c2ccc(-c3ccc(-c4[nH]c([C@@H]5CCCN5C(=O)[C@@H](NC(=O)OC)C(C)C)nc4-c4cccs4)cc3)cc2)[nH]1)C(C)C | > 1 µM | 0.3 nM | > 100 µM | > 100 µM | 44.6 µM |  |  |  |  |  | 
COC(=O)N[C@H](C(=O)N1C[C@H](n2cc(-c3ccccc3)nn2)C[C@H]1c1ncc(-c2ccc(-c3ccc(-c4cnc([C@@H]5C[C@@H](n6cc(-c7ccccc7)nn6)CN5C(=O)[C@@H](NC(=O)OC)C(C)C)[nH]4)cc3)cc2)[nH]1)C(C)C | > 1 µM | 9.2 nM | > 100 µM |  | > 100 µM |  |  |  |  |  | 
COC(=O)N[C@H](C(=O)N1C[C@@H](N=[N+]=[N-])C[C@H]1c1nc(Br)c(-c2ccc(-c3ccc(-c4[nH]c([C@@H]5C[C@H](N=[N+]=[N-])CN5C(=O)[C@@H](NC(=O)OC)C(C)C)nc4Br)cc3)cc2)[nH]1)C(C)C | > 1 µM | 0.0553 nM | 4.5 µM |  | 3.4 µM |  |  |  |  |  | 
COC(=O)N[C@H](C(=O)N1C[C@@H](n2cc(-c3ccccc3)nn2)C[C@H]1c1ncc(-c2ccc(-c3ccc(-c4cnc([C@@H]5C[C@H](n6cc(-c7ccccc7)nn6)CN5C(=O)[C@@H](NC(=O)OC)C(C)C)[nH]4)cc3)cc2)[nH]1)C(C)C | > 1 µM | > 10 nM |  | > 100 µM | 96 µM |  |  |  |  |  | 
COC(=O)N[C@H](C(=O)N1CCC[C@H]1c1nc(-c2ccco2)c(-c2ccc(-c3ccc(-c4[nH]c([C@@H]5CCCN5C(=O)[C@@H](NC(=O)OC)C(C)C)nc4-c4ccco4)cc3)cc2)[nH]1)C(C)C | > 1 µM | 0.097 nM | 2.9 µM | > 100 µM | 49.2 µM |  |  |  |  |  | 
COC(=O)N[C@H](C(=O)N1CCC[C@H]1c1nc(-c2ccc(-c3ccc(-c4c[nH]c([C@@H]5CCCN5C(=O)[C@@H](NC(=O)OC)C(C)C)n4)cc3)cc2)c[nH]1)C(C)C | > 1 µM |  |  |  |  |  |  |  |  | 56.3 min | 59.5 µM
COC(=O)N[C@H](C(=O)N1CCC[C@H]1c1ncc(-c2ccc(-c3ccc(-c4[nH]c([C@@H]5CCCN5C(=O)[C@@H](NC(=O)OC)C(C)C)nc4F)cc3)cc2)[nH]1)C(C)C | > 1 µM | 0.0525 nM | 2.8 µM | 83 µM | 16 µM |  |  |  |  |  | 
COC(=O)N[C@H](C(=O)N1C[C@H](n2cc(C(=O)OC)nn2)C[C@H]1c1ncc(-c2ccc(-c3ccc(-c4cnc([C@@H]5C[C@@H](n6cc(C(=O)OC)nn6)CN5C(=O)[C@@H](NC(=O)OC)C(C)C)[nH]4)cc3)cc2)[nH]1)C(C)C | > 1 µM | 0.0428 nM | 10.7 µM | > 100 µM | 6.6 µM |  |  |  |  |  | 
COC(=O)N[C@H](C(=O)N1CCC[C@H]1c1nc(Br)c(-c2ccc(-c3ccc(-c4[nH]c([C@@H]5CCCN5C(=O)[C@@H](NC(=O)OC)C(C)C)nc4Br)cc3)cc2)[nH]1)C(C)C | > 1 µM | 0.014 nM | 5.7 µM | 84 µM | 2.9 µM | Stable | 10.3 µL/min/mg | Stable |  | 67.3 min | 
